Laboratory results: BindingDB's records for doi:10.1016/0960-894X(95)00347-V (1995)

Assays:
[1] = Inhibition of porcine Pancreatic elastase without pre-incubation
[2] = as above; remark: listed apart in the source
[3] = as above; remark: listed apart in the source
[4] = Inhibition of porcine Pancreatic elastase with 10 min pre-incubation

Compound: CC(C)(C)C(=O)OCOC(=O)[C@@H]1N2C(=O)[C@H](Cl)[C@H]2S(=O)(=O)C1(C)C [(2S,5R,6S)-6-Chloro-3,3-dimethyl-4,4,7-trioxo-4lambda*6*-thia-1-aza-bicyclo[3.2.0]heptane-2-carboxylic acid 2,2-dimethyl-propionyloxymethyl ester]
- IC50 [1]: 220 µM
- IC50 [2]: 280 µM

Compound: CC1(C)[C@H](C(=O)OCc2ccccc2)N2C(=O)[C@H](OS(C)(=O)=O)[C@H]2S1(=O)=O [(2S,5R,6S)-6-Methanesulfonyloxy-3,3-dimethyl-4,4,7-trioxo-4lambda*6*-thia-1-aza-bicyclo[3.2.0]heptane-2-carboxylic acid benzyl ester]
- IC50 [1]: 0.13 µM
- IC50 [2]: 2.2 µM

Compound: CC(C)(C)C(=O)OCOC(=O)[C@@H]1N2C(=O)[C@H](OS(=O)(=O)C(F)(F)F)[C@H]2S(=O)(=O)C1(C)C [(2S,5R,6S)-3,3-Dimethyl-4,4,7-trioxo-6-trifluoromethanesulfonyloxy-4lambda*6*-thia-1-aza-bicyclo[3.2.0]heptane-2-carboxylic acid 2,2-dimethyl-propionyloxymethyl ester]
- IC50 [3]: 1 µM

Compound: Cc1ccc(S(=O)(=O)O[C@H]2C(=O)N3[C@@H](C(=O)OCc4ccccc4)C(C)(C)S(=O)(=O)[C@H]23)cc1 [(2S,5R,6S)-3,3-Dimethyl-4,4,7-trioxo-6-(toluene-4-sulfonyloxy)-4lambda*6*-thia-1-aza-bicyclo[3.2.0]heptane-2-carboxylic acid benzyl ester]
- IC50 [1]: 0.15 µM
- IC50 [2]: 23 µM

Compound: Cc1ccc(S(=O)(=O)O[C@H]2C(=O)N3[C@@H](C(=O)OCOC(=O)C(C)(C)C)C(C)(C)S(=O)(=O)[C@H]23)cc1 [(2S,5R,6S)-3,3-Dimethyl-4,4,7-trioxo-6-(toluene-4-sulfonyloxy)-4lambda*6*-thia-1-aza-bicyclo[3.2.0]heptane-2-carboxylic acid 2,2-dimethyl-propionyloxymethyl ester]
- IC50 [3]: 2.1 µM
- IC50 [4]: 0.49 µM

Compound: CC1(C)[C@H](C(=O)OCc2ccccc2)N2C(=O)[C@H](OS(=O)(=O)C(F)(F)F)[C@H]2S1(=O)=O [(2S,5R,6S)-3,3-Dimethyl-4,4,7-trioxo-6-trifluoromethanesulfonyloxy-4lambda*6*-thia-1-aza-bicyclo[3.2.0]heptane-2-carboxylic acid benzyl ester]
- IC50 [3]: 0.68 µM

Compound: CC(C)(C)C(=O)OCOC(=O)[C@@H]1N2C(=O)[C@H](OS(C)(=O)=O)[C@H]2S(=O)(=O)C1(C)C [(2S,5R,6S)-6-Methanesulfonyloxy-3,3-dimethyl-4,4,7-trioxo-4lambda*6*-thia-1-aza-bicyclo[3.2.0]heptane-2-carboxylic acid 2,2-dimethyl-propionyloxymethyl ester]
- IC50 [3]: 4.3 µM
- IC50 [4]: 0.54 µM
